Results from ChEMBL document CHEMBL4406824, “Phenolic N-monosubstituted carbamates: Antitubercular and toxicity evaluation of multi-targeting compounds” (Eur J Med Chem, 2019).
Values after ≈ are worked out from the molar mass of the structure shown.

How the values were obtained:
[1] = test system: Mycobacterium avium; assay: Antimycobacterial activity against Mycobacterium avium 330/88 after 14 days; assay type: functional; details: 330/88, 336 h
[2] = test system: Mycobacterium tuberculosis; assay type: functional; details: H37Rv 331/88, 504 h
[3] = test system: Mycobacterium tuberculosis; assay type: functional; details: H37Rv 331/88, 336 h
[4] = test system: Mycobacterium avium; assay: Antimycobacterial activity against Mycobacterium avium 330/88 after 21 days; assay type: functional; details: 330/88, 504 h
[5] = test system: Mycobacterium kansasii; assay: Antimycobacterial activity against Mycobacterium kansasii 235/80 after 7 days; assay type: functional; details: 235/80, 168 h
[6] = test system: Mycobacterium kansasii; assay: Antimycobacterial activity against Mycobacterium kansasii 235/80 after 14 days; assay type: functional; details: 235/80, 336 h
[7] = test system: Mycobacterium kansasii; assay: Antimycobacterial activity against Mycobacterium kansasii 235/80 after 21 days; assay type: functional; details: 235/80, 504 h
[8] = test system: Mycobacterium kansasii; assay: Antimycobacterial activity against Mycobacterium kansasii 6509/96 after 7 days; assay type: functional; details: 6509/96, 168 h
[9] = test system: Mycobacterium kansasii; assay: Antimycobacterial activity against Mycobacterium kansasii 6509/96 after 14 days; assay type: functional; details: 6509/96, 336 h
[10] = test system: Mycobacterium kansasii; assay: Antimycobacterial activity against Mycobacterium kansasii 6509/96 after 21 days; assay type: functional; details: 6509/96, 504 h
[11] = test system: Mycobacterium tuberculosis; assay type: functional, H37Rv 331/88; design: reference not given here
[12] = test system: Mycobacterium kansasii; assay: Potency index, ratio of p-aminosalicylic acid MIC to compound MIC for antimycobacterial activity against Mycobacterium kansasii 235/80; assay type: functional
[13] = test system: Mycobacterium kansasii; assay: Potency index, ratio of p-aminosalicylic acid MIC to compound MIC for antimycobacterial activity against Mycobacterium kansasii 6509/96; assay type: functional
[14] = test system: Mycobacterium tuberculosis; assay: Antimycobacterial activity against Mycobacterium tuberculosis H37Ra ITM-M006710 after 48 hr by resazurin dye based microdilution method; assay type: functional; details: H37Ra ITM-M006710, 48 h
[15] = test system: Mycolicibacterium aurum; assay: Antimycobacterial activity against Mycobacterium aurum DSM 43999 after 72 hr by resazurin dye based microdilution method; assay type: functional; details: DSM 43999, 72 h
[16] = test system: Mycolicibacterium smegmatis; assay: Antimycobacterial activity against Mycobacterium smegmatis DSM 43465 after 120 hr by resazurin dye based microdilution method; assay type: functional; details: DSM 43465, 120 h
[17] = test system: Mycobacterium tuberculosis H37Rv; assay: Inhibition of recombinant Mycobacterium tuberculosis H37Rv ICL1 expressed in Escherichia coli BL21 (DE3) cells at 10 uM using (+)-potassium Ds-threo-isocitrate as substrate by glyoxylate phenyl hydrazone formation assay relative to control
[18] = test system: HepG2; assay: Cytotoxicity against human HepG2 cells assessed as reduction in cell viability after overnight incubation by MTT assay; assay type: cell-based
[19] = test system: HepG2; assay: Cytostatic activity against human HepG2 cells preincubated for overnight in serum free medium followed by compound wash out and further incubated for 72 hrs in presence of serum by MTT assay; assay type: ADME, cell-based
[20] = test system: Mycobacterium tuberculosis; assay: Antimycobacterial activity against XDR Mycobacterium tuberculosis Praha 131 after 14 days; assay type: functional; details: Praha 131, 336 h
[21] = test system: Mycobacterium tuberculosis; assay: Antimycobacterial activity against XDR Mycobacterium tuberculosis Praha 131 after 21 days; assay type: functional; details: Praha 131, 504 h
[22] = in vitro; details: human, HepG2 cells
Description: Selectivity index, ratio of IC50 for human HepG2 cells to MIC for antimycobacterial activity against Mycobacterium tuberculosis H37Rv

Row | SMILES | MIC [1] [µM] | MIC [2] [µM] | MIC [3] [µM] | MIC [4] [µM] | MIC [5] [µM] | MIC [6] [µM] | MIC [7] [µM] | MIC [8] [µM] | MIC [9] [µM] | MIC [10] [µM] | Ratio [11] | Ratio [12] | Ratio [13] | MIC [14] | MIC [15] | MIC [16] | inhibition [17] [%] | IC50 [18] [µM] | IC50 [19] [µM] | selectivity ratio [22] | further results
1 | O=C(NCCc1ccccc1)Oc1ccc(Cl)cc1C(=O)Nc1ccc(C(F)(F)F)cc1 | 8 (≈ 3.7 µg/mL) | 1 (≈ 0.463 µg/mL) | ≤ 0.5 | 8 (≈ 3.7 µg/mL) | 4 (≈ 1.85 µg/mL) | 4 (≈ 1.85 µg/mL) | 8 (≈ 3.7 µg/mL) | 2 (≈ 0.926 µg/mL) | 4 (≈ 1.85 µg/mL) | 4 (≈ 1.85 µg/mL) | >125 | >250 | >250 | 0.84 to 1.69 µM | ≤ 0.84 µM | ≤ 0.84 µM | 11 | > 125 | 1 | > 125 | MIC [20]: 2 µM (≈ 0.926 µg/mL); MIC [21]: 2 µM (≈ 0.926 µg/mL)
2 | O=C(NCc1ccccc1)Oc1ccc(Cl)cc1C(=O)Nc1ccc(Cl)cc1 | 8 (≈ 3.32 µg/mL) | 16 (≈ 6.64 µg/mL) | 16 (≈ 6.64 µg/mL) | 16 (≈ 6.64 µg/mL) | 8 (≈ 3.32 µg/mL) | 8 (≈ 3.32 µg/mL) | 16 (≈ 6.64 µg/mL) | 4 (≈ 1.66 µg/mL) | 8 (≈ 3.32 µg/mL) | 8 (≈ 3.32 µg/mL) | >125 | >250 | >250 | 1.56 µg/mL | 1.56 µg/mL | 1.56 µg/mL | 11 | > 250 | 6.4 | > 15.6 | –
3 | O=C(NC1CCCCC1)Oc1ccc(Cl)cc1C(=O)Nc1ccc(Br)cc1 | 8 (≈ 3.61 µg/mL) | 16 (≈ 7.23 µg/mL) | 8 (≈ 3.61 µg/mL) | 16 (≈ 7.23 µg/mL) | 4 (≈ 1.81 µg/mL) | 8 (≈ 3.61 µg/mL) | 8 (≈ 3.61 µg/mL) | 4 (≈ 1.81 µg/mL) | 8 (≈ 3.61 µg/mL) | 8 (≈ 3.61 µg/mL) | >125 | >250 | >250 | 1.56 µg/mL | 1.56 µg/mL | 1.56 µg/mL | 16 | > 50 | 9.4 | > 6.3 | –
4 | O=C(NC12CC3CC(CC(C3)C1)C2)Oc1ccc(Cl)cc1C(=O)Nc1ccc(F)cc1 | 32 (≈ 14.2 µg/mL) | 4 (≈ 1.77 µg/mL) | 4 (≈ 1.77 µg/mL) | 32 (≈ 14.2 µg/mL) | 8 (≈ 3.54 µg/mL) | 8 (≈ 3.54 µg/mL) | 16 (≈ 7.09 µg/mL) | 8 (≈ 3.54 µg/mL) | 8 (≈ 3.54 µg/mL) | 16 (≈ 7.09 µg/mL) | >125 | >250 | >250 | 2.24 µM | 1.98 µg/mL | 1.98 µg/mL | 14 | > 125 | > 125 | 31.3 | –
5 | O=C(NC1CCCCC1)Oc1ccc(Cl)cc1C(=O)Nc1ccc(C(F)(F)F)cc1 | 8 (≈ 3.53 µg/mL) | 1 (≈ 0.441 µg/mL) | 1 (≈ 0.441 µg/mL) | 8 (≈ 3.53 µg/mL) | 4 (≈ 1.76 µg/mL) | 4 (≈ 1.76 µg/mL) | 8 (≈ 3.53 µg/mL) | 2 (≈ 0.882 µg/mL) | 4 (≈ 1.76 µg/mL) | 4 (≈ 1.76 µg/mL) | >125 | >250 | >250 | ≤ 0.88 µM | ≤ 0.88 µM | ≤ 0.88 µM | 14 | > 125 | 0.75 | > 125 | MIC [20]: 0.5 µM (≈ 0.22 µg/mL); MIC [21]: 1 µM (≈ 0.441 µg/mL)
6 | O=C(NCCc1ccccc1)Oc1ccc(Cl)cc1C(=O)Nc1ccc(F)cc1 | 32 (≈ 13.2 µg/mL) | 4 (≈ 1.65 µg/mL) | 4 (≈ 1.65 µg/mL) | 32 (≈ 13.2 µg/mL) | 8 (≈ 3.3 µg/mL) | 16 (≈ 6.61 µg/mL) | 16 (≈ 6.61 µg/mL) | 8 (≈ 3.3 µg/mL) | 16 (≈ 6.61 µg/mL) | 16 (≈ 6.61 µg/mL) | >125 | >250 | >250 | 3.12 µg/mL | 3.12 µg/mL | 3.12 µg/mL | 15 | 41.5 | 7.6 | 10.4 | –
7 | O=C(Nc1ccccc1)Oc1ccc(Cl)cc1C(=O)Nc1ccc(Cl)cc1 | 16 (≈ 6.42 µg/mL) | 16 (≈ 6.42 µg/mL) | 16 (≈ 6.42 µg/mL) | 16 (≈ 6.42 µg/mL) | 16 (≈ 6.42 µg/mL) | 32 (≈ 12.8 µg/mL) | 32 (≈ 12.8 µg/mL) | 8 (≈ 3.21 µg/mL) | 16 (≈ 6.42 µg/mL) | 16 (≈ 6.42 µg/mL) | >125 | >250 | >250 | 1.56 µg/mL | 1.56 µg/mL | 1.56 µg/mL | 10 | > 250 | 0.9 | > 15.6 | –
8 | O=C(NCCc1ccccc1)Oc1ccc(Cl)cc1C(=O)Nc1ccc(Cl)cc1 | 8 (≈ 3.43 µg/mL) | 16 (≈ 6.87 µg/mL) | 8 (≈ 3.43 µg/mL) | 8 (≈ 3.43 µg/mL) | 8 (≈ 3.43 µg/mL) | 8 (≈ 3.43 µg/mL) | 16 (≈ 6.87 µg/mL) | 4 (≈ 1.72 µg/mL) | 8 (≈ 3.43 µg/mL) | 8 (≈ 3.43 µg/mL) | >125 | >250 | >250 | 1.56 µg/mL | 1.56 µg/mL | 1.56 µg/mL | 10 | 15 | 5.1 | 1.9 | –
9 | O=C(NC12CC3CC(CC(C3)C1)C2)Oc1ccc(Cl)cc1C(=O)Nc1ccc(Br)cc1 | 8 (≈ 4.03 µg/mL) | 8 (≈ 4.03 µg/mL) | 8 (≈ 4.03 µg/mL) | 8 (≈ 4.03 µg/mL) | 4 (≈ 2.02 µg/mL) | 8 (≈ 4.03 µg/mL) | 8 (≈ 4.03 µg/mL) | 4 (≈ 2.02 µg/mL) | 8 (≈ 4.03 µg/mL) | 8 (≈ 4.03 µg/mL) | >125 | >250 | >250 | 1.56 µg/mL | 1.56 µg/mL | 3.12 µg/mL | 18 | 4.2 | 4.35 | 0.5 | –
10 | O=C(Nc1ccccc1)Oc1ccc(Cl)cc1C(=O)Nc1ccc(Br)cc1 | 8 (≈ 3.57 µg/mL) | 16 (≈ 7.13 µg/mL) | 8 (≈ 3.57 µg/mL) | 16 (≈ 7.13 µg/mL) | 4 (≈ 1.78 µg/mL) | 8 (≈ 3.57 µg/mL) | 8 (≈ 3.57 µg/mL) | 4 (≈ 1.78 µg/mL) | 8 (≈ 3.57 µg/mL) | 8 (≈ 3.57 µg/mL) | >125 | >250 | >250 | 1.56 µg/mL | 1.56 µg/mL | 1.56 µg/mL | 17 | > 50 | 5.45 | > 6.3 | –
11 | O=C(NCc1ccccc1)Oc1ccc(Cl)cc1C(=O)Nc1ccc(F)cc1 | 62.5 (≈ 24.9 µg/mL) | 16 (≈ 6.38 µg/mL) | 8 (≈ 3.19 µg/mL) | 62.5 (≈ 24.9 µg/mL) | 16 (≈ 6.38 µg/mL) | 32 (≈ 12.8 µg/mL) | 32 (≈ 12.8 µg/mL) | 16 (≈ 6.38 µg/mL) | 32 (≈ 12.8 µg/mL) | 32 (≈ 12.8 µg/mL) | >125 | >250 | >250 | 3.12 µg/mL | 3.12 µg/mL | 3.12 µg/mL | 15 | > 125 | 34.1 | > 7.8 | –
12 | O=C(NCc1ccccc1)Oc1ccc(Cl)cc1C(=O)Nc1ccc(C(F)(F)F)cc1 | 32 (≈ 14.4 µg/mL) | 4 (≈ 1.8 µg/mL) | 2 (≈ 0.898 µg/mL) | 32 (≈ 14.4 µg/mL) | 8 (≈ 3.59 µg/mL) | 16 (≈ 7.18 µg/mL) | 16 (≈ 7.18 µg/mL) | 8 (≈ 3.59 µg/mL) | 16 (≈ 7.18 µg/mL) | 16 (≈ 7.18 µg/mL) | >125 | >250 | >250 | ≤ 0.87 µM | ≤ 0.87 µM | 1.74 µM | 14 | > 125 | 3 | > 31.3 | –
13 | O=C(NCCc1ccccc1)Oc1ccc(Cl)cc1C(=O)Nc1ccc(Br)cc1 | 8 (≈ 3.79 µg/mL) | 8 (≈ 3.79 µg/mL) | 8 (≈ 3.79 µg/mL) | 8 (≈ 3.79 µg/mL) | 4 (≈ 1.9 µg/mL) | 8 (≈ 3.79 µg/mL) | 8 (≈ 3.79 µg/mL) | 4 (≈ 1.9 µg/mL) | 8 (≈ 3.79 µg/mL) | 8 (≈ 3.79 µg/mL) | >125 | >250 | >250 | 1.65 µM | 1.56 µg/mL | 3.12 µg/mL | 17 | > 50 | 2.2 | > 6.3 | –
14 | O=C(NC1CCCCC1)Oc1ccc(Cl)cc1C(=O)Nc1ccc(Cl)cc1 | 16 (≈ 6.52 µg/mL) | 16 (≈ 6.52 µg/mL) | 16 (≈ 6.52 µg/mL) | 16 (≈ 6.52 µg/mL) | 16 (≈ 6.52 µg/mL) | 32 (≈ 13 µg/mL) | 32 (≈ 13 µg/mL) | 8 (≈ 3.26 µg/mL) | 8 (≈ 3.26 µg/mL) | 8 (≈ 3.26 µg/mL) | >125 | >250 | >250 | 3.12 µg/mL | 1.56 µg/mL | 1.56 µg/mL | 13 | > 250 | 33.6 | > 15.6 | –
